Experimental data published in US20240270762A1, “PENICILLIN-BINDING PROTEIN INHIBITORS” (priority 2021, published 2024).
≈ marks a conversion by molar mass, not a printed value.

Legend:
[1] = target: T1, PBP3 from Pseudomonas aeruginosa (PAO1) (Pseudomonas aeruginosa, UniProt G3XD46); assay: Bocillin-FL fluorescence polarization competition binding, P. aeruginosa PBP3; details: Binding affinity to P. aeruginosa PBP3; fluorescence polarization competition binding assay using Bocillin-FL; read-out: P. aeruginosa PBP3 Potency
T1 construct: made in house
How it was run: (§1)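 Purified PBPs pre-incubated with inhibitor (E. coli PBP3 1.5 μM, 30 min; P. aeruginosa PBP3 0.75 μM, A. baumannii PBP1a 1 μM and PBP3 0.2 μM, 15 min), then Bocillin-FL 0.1 μM (0.05 μM for PBP1a) added; FP read up to 60 min. EC50 = concentration halving bound Bocillin-FL.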

[2] = tested on: A. baumannii CDC-0083; assay: microbe, parasite or virus in culture; type: cell-based; details: Acinetobacter baumannii, CDC0083, read-out: MIC, A. baumannii CDC-0083
[3] = tested on: P. aeruginosa CDC-0095; assay: microbe, parasite or virus in culture; type: cell-based; details: Pseudomonas aeruginosa, CDC0095, read-out: Minimum inhibitory concentration, P. aeruginosa CDC-0095
[4] = tested on: N. gonorrhoeae WHO G; assay: Liquid broth MIC in Fastidious broth; details: Neisseria gonorrhoeae, read-out: Minimum Inhibitory Concentration (MIC), N. gonorrhoeae WHO G
[5] = tested on: N. gonorrhoeae ATCC 49226; assay: Liquid broth MIC in Fastidious broth; details: Neisseria gonorrhoeae, ATCC49226, read-out: Minimum Inhibitory Concentration (MIC), N. gonorrhoeae ATCC 49226
Description: Additional antibacterial testing of the series was performed in 8 reference strains of N. gonorrhoeae (ATCC 49226, FA1090, MS 11, WHO G, WHO L, WHO M, WHO K, WHO X, WHO Z, WHO Q, CDC-0197). ATCC 49226, FA1090, MS11, WHO G, WHO L, and WHO M produce wild type or wild-type like PBP2. WHO K, WHO X, WHO Z, WHO Q, and CDC-0197 produce mosaic PBP2. Liquid broth-based assays were used for antibacterial testing of PBP inhibitors in Neisseria gonorrhoeae. Briefly, cryo-preserved bacterial cultures of clinical strains were streaked for isolation on Chocolate Agar (72 g/L (2×) GC Agar Base (BD #228950) and 2% (2×) Hemoglobin was autoclaved at 121° C. for 20 minutes to sterilize. Once cooled to ˜50° C. the 2×GC Agar Base and 2× Hemoglobin solutions are combined and 1% IsoVitaleX Enrichment (BD #211876) was added to the solution). Strains were incubated at 36° C. and 5% CO2 to allow growth of colonies, 24 hours before inoculum preparation. 2-fold serial dilutions of test compounds were conducted in a 96 well plate with a final volume of 75 μL per well at 2-fold the final desired concentration in Fastidious broth (Remel #R07664). For preparation of assay inoculum, a direct suspension was prepared by aseptically swabbing 10-15 colonies from agar plates into culture tubes containing 2 mL of fresh sterile saline. After the dilution plates were set up, direct suspensions were then diluted in a cuvette containing sterile saline and the optical density was measured at 600 nm. Inocula were diluted such that 75 μL of this culture in Fastidious broth results in a starting bacterial concentration of 5×10^5 CFU/mL when added to the dilution plates. The plates were incubated for ˜24 hours at 36° C. and 5% CO2.

[6] = tested on: P. aeruginosa CDC-0054; assay: microbe, parasite or virus in culture; type: cell-based; details: Pseudomonas aeruginosa, CDC0054, read-out: Minimum inhibitory concentration, P. aeruginosa CDC-0054
[7] = tested on: P. aeruginosa ATCC 27853; assay: microbe, parasite or virus in culture; type: cell-based; details: Pseudomonas aeruginosa, ATCC27853, read-out: Minimum inhibitory concentration, P. aeruginosa ATCC 27853
[8] = tested on: B. thailandensis ATCC 700388; assay: microbe, parasite or virus in culture; type: cell-based; details: Burkholderia thailandensis, ATCC700388, read-out: Minimum inhibitory concentration (MIC), B. thailandensis ATCC 700388
[9] = tested on: N. gonorrhoeae WHO X; assay: Liquid broth MIC in Fastidious broth; details: Neisseria gonorrhoeae, read-out: Minimum Inhibitory Concentration (MIC), N. gonorrhoeae WHO X
[10] = tested on: A. baumannii CDC-0033; assay: microbe, parasite or virus in culture; type: cell-based; details: Acinetobacter baumannii, CDC0033, read-out: MIC, A. baumannii CDC-0033
[11] = tested on: P. aeruginosa CDC-0110; assay: microbe, parasite or virus in culture; type: cell-based; details: Pseudomonas aeruginosa, CDC0110, read-out: Minimum inhibitory concentration, P. aeruginosa CDC-0110
[12] = target: T2, PBP3 from Escherichia coli (K-12) (Escherichia coli, UniProt P0AD68); assay: Bocillin-FL fluorescence polarization competition binding, E. coli PBP3
T2 construct: made in house
How it was run: as §1

[13] = tested on: P. aeruginosa CDC-0090; assay: microbe, parasite or virus in culture; type: cell-based; details: Pseudomonas aeruginosa, CDC0090, read-out: Minimum inhibitory concentration, P. aeruginosa CDC-0090
[14] = tested on: B. humptydooensis ATCC BAA-2767; assay: microbe, parasite or virus in culture; type: cell-based; details: Burkholderia humptydooensis, ATCCBAA2767, read-out: Minimum inhibitory concentration (MIC), B. humptydooensis ATCC BAA-2767
[15] = tested on: N. gonorrhoeae CDC-0197; assay: Liquid broth MIC in Fastidious broth; details: Neisseria gonorrhoeae, CDC0197, read-out: Minimum Inhibitory Concentration (MIC), N. gonorrhoeae CDC-0197
Description: ATCC 49226, FA1090, MS11, WHO G, WHO L, and WHO M produce wild type or wild-type like PBP2. WHO K, WHO X, WHO Z, WHO Q, and CDC-0197 produce mosaic PBP2. Liquid broth-based assays were used for antibacterial testing of PBP inhibitors in Neisseria gonorrhoeae. Briefly, cryo-preserved bacterial cultures of clinical strains were streaked for isolation on Chocolate Agar (72 g/L (2×) GC Agar Base (BD #228950) and 2% (2×) Hemoglobin was autoclaved at 121° C. for 20 minutes to sterilize. Once cooled to ˜50° C. the 2×GC Agar Base and 2× Hemoglobin solutions are combined and 1% IsoVitaleX Enrichment (BD #211876) was added to the solution). Strains were incubated at 36° C. and 5% CO2 to allow growth of colonies, 24 hours before inoculum preparation. 2-fold serial dilutions of test compounds were conducted in a 96 well plate with a final volume of 75 μL per well at 2-fold the final desired concentration in Fastidious broth (Remel #R07664). For preparation of assay inoculum, a direct suspension was prepared by aseptically swabbing 10-15 colonies from agar plates into culture tubes containing 2 mL of fresh sterile saline. After the dilution plates were set up, direct suspensions were then diluted in a cuvette containing sterile saline and the optical density was measured at 600 nm. Inocula were diluted such that 75 μL of this culture in Fastidious broth results in a starting bacterial concentration of 5×10^5 CFU/mL when added to the dilution plates. The plates were incubated for ˜24 hours at 36° C. and 5% CO2.

T1 sequence (G3XD46 whole entry): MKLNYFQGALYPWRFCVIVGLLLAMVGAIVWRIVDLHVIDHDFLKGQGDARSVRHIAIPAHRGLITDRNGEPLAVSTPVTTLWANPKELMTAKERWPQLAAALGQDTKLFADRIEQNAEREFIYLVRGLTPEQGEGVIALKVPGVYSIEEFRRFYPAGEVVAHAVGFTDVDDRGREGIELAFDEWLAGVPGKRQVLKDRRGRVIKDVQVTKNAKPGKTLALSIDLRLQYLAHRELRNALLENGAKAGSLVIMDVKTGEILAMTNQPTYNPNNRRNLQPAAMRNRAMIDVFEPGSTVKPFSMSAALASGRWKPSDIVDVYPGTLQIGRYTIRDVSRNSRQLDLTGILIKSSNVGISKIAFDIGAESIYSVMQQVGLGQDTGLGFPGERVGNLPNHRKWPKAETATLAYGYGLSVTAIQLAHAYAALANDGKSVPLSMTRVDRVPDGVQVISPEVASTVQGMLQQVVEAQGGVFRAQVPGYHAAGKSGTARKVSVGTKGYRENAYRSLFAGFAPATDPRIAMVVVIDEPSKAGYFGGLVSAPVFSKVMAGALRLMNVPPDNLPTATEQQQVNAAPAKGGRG
T2 sequence (P0AD68 1-577): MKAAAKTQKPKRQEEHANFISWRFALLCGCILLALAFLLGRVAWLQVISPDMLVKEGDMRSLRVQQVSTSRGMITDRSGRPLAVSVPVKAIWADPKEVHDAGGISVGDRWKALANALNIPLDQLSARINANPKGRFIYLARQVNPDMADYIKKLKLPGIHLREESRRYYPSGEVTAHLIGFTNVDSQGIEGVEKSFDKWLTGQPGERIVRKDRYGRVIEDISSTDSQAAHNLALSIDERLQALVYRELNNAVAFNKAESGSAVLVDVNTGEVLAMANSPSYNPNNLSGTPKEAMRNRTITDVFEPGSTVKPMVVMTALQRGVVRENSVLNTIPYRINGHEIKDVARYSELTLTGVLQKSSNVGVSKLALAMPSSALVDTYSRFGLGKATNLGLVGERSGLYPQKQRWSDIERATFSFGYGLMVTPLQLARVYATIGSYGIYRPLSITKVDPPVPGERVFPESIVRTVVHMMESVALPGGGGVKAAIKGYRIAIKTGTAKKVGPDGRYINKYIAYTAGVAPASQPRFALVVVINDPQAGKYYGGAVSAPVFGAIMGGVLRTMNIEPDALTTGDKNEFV

| SMILES | IC50 [1] | MIC [2] | MIC [3] | MIC [4] | MIC [5] | MIC [6] | MIC [7] | MIC [8] | MIC [9] | MIC [10] | MIC [11] | EC50 [12] | MIC [13] | MIC [14] | MIC [15] |
| --- | --- | --- | --- | --- | --- | --- | --- | --- | --- | --- | --- | --- | --- | --- | --- |
| CN(CCN1CCN(C(=O)N[C@@H](C(=O)N[C@H]2Cc3ccc(F)c(C(=O)O)c3OB2O)c2cc(F)c(O)c(O)c2Cl)C(=O)C1=O)Cc1nccs1 [Example 200, (R)-3-((R)-2-(2-chloro-5-fluoro-3,4-dihydroxyphenyl)-2-(4-(2-(methyl(thiazol-2-ylmethyl)amino)ethyl)-2,3-dioxopiperazine-1-carboxamido)acetamido)-7-fluoro-2-hydroxy-3,4-dihydro-2H-benzo[e][1,2]oxaborinine-8-carboxylic acid] | < 10 µM | < 1 mg/L | < 1 mg/L | 4 to 8 mg/L (≈ 5.43 to 10.9 µM) | 4 to 8 mg/L (≈ 5.43 to 10.9 µM) | < 1 mg/L | < 1 mg/L | < 1 mg/L | > 64 mg/L | 2 to 4 mg/L (≈ 2.71 to 5.43 µM) | < 1 mg/L | 10 to 50 µM | < 1 mg/L | < 1 mg/L | > 64 mg/L |
| CN(CCN1CCN(C(=O)N[C@@H](C(=O)N[C@H]2Cc3ccc(F)c(C(=O)O)c3OB2O)c2cc(F)c(O)c(O)c2Cl)C(=O)C1=O)Cc1cccnc1 [Example 201, (R)-3-((R)-2-(2-chloro-5-fluoro-3,4-dihydroxyphenyl)-2-(4-(2-(methyl(pyridin-3-ylmethyl)amino)ethyl)-2,3-dioxopiperazine-1-carboxamido)acetamido)-7-fluoro-2-hydroxy-3,4-dihydro-2H-benzo[e][1,2]oxaborinine-8-carboxylic acid] | < 10 µM | < 1 mg/L | < 1 mg/L | 4 to 8 mg/L (≈ 5.47 to 10.9 µM) | 16 to 32 mg/L (≈ 21.9 to 43.8 µM) | < 1 mg/L | < 1 mg/L | < 1 mg/L | > 64 mg/L | 2 to 4 mg/L (≈ 2.74 to 5.47 µM) | < 1 mg/L | < 10 µM | < 1 mg/L | < 1 mg/L | > 64 mg/L |
| O=C(NCCCN1CCN(C(=O)NC(C(=O)N[C@H]2Cc3ccc(F)c(C(=O)O)c3OB2O)c2cc(F)c(O)c(O)c2Cl)C(=O)C1=O)c1ccccc1 (stereo partly drawn) [Example 202, (3R)-3-(2-(4-(3-benzamidopropyl)-2,3-dioxopiperazine-1-carboxamido)-2-(2-chloro-5-fluoro-3,4-dihydroxyphenyl)acetamido)-7-fluoro-2-hydroxy-3,4-dihydro-2H-benzo[e][1,2]oxaborinine-8-carboxylic acid] | < 10 µM | < 1 mg/L | 2 to 4 mg/L (≈ 2.69 to 5.38 µM) | 16 to 32 mg/L (≈ 21.5 to 43 µM) | 16 to 32 mg/L (≈ 21.5 to 43 µM) | < 1 mg/L | 2 to 4 mg/L (≈ 2.69 to 5.38 µM) | 8 to 16 mg/L (≈ 10.8 to 21.5 µM) | > 64 mg/L | 8 to 16 mg/L (≈ 10.8 to 21.5 µM) | < 1 mg/L | < 10 µM | 2 to 4 mg/L (≈ 2.69 to 5.38 µM) | < 1 mg/L | > 64 mg/L |
| O=C(NCCCN1CCN(C(=O)NC(C(=O)N[C@H]2Cc3ccc(F)c(C(=O)O)c3OB2O)c2cc(F)c(O)c(O)c2Cl)C(=O)C1=O)c1ccc(O)cc1 (stereo partly drawn) [Example 203, (3R)-3-(2-(2-chloro-5-fluoro-3,4-dihydroxyphenyl)-2-(4-(3-(4-hydroxybenzamido)propyl)-2,3-dioxopiperazine-1-carboxamido)acetamido)-7-fluoro-2-hydroxy-3,4-dihydro-2H-benzo[e][1,2]oxaborinine-8-carboxylic acid] | < 10 µM | < 1 mg/L | 2 to 4 mg/L (≈ 2.63 to 5.26 µM) | 4 to 8 mg/L (≈ 5.26 to 10.5 µM) | 4 to 8 mg/L (≈ 5.26 to 10.5 µM) | < 1 mg/L | < 1 mg/L | < 1 mg/L | > 64 mg/L | 2 to 4 mg/L (≈ 2.63 to 5.26 µM) | < 1 mg/L | < 10 µM | < 1 mg/L | < 1 mg/L | 16 to 32 mg/L (≈ 21.1 to 42.1 µM) |
| O=C(NCCCN1CCN(C(=O)NC(C(=O)N[C@H]2Cc3ccc(F)c(C(=O)O)c3OB2O)c2cc(F)c(O)c(O)c2Cl)C(=O)C1=O)c1cccc(O)c1 (stereo partly drawn) [Example 204, (3R)-3-(2-(2-chloro-5-fluoro-3,4-dihydroxyphenyl)-2-(4-(3-(3-hydroxybenzamido)propyl)-2,3-dioxopiperazine-1-carboxamido)acetamido)-7-fluoro-2-hydroxy-3,4-dihydro-2H-benzo[e][1,2]oxaborinine-8-carboxylic acid] | < 10 µM | < 1 mg/L | < 1 mg/L | 4 to 8 mg/L (≈ 5.26 to 10.5 µM) | 16 to 32 mg/L (≈ 21.1 to 42.1 µM) | < 1 mg/L | < 1 mg/L | 2 to 4 mg/L (≈ 2.63 to 5.26 µM) | > 64 mg/L | 2 to 4 mg/L (≈ 2.63 to 5.26 µM) | < 1 mg/L | < 10 µM | < 1 mg/L | < 1 mg/L | 16 to 32 mg/L (≈ 21.1 to 42.1 µM) |
| O=C(NCCCN1CCN(C(=O)NC(C(=O)N[C@H]2Cc3ccc(F)c(C(=O)O)c3OB2O)c2cc(F)c(O)c(O)c2Cl)C(=O)C1=O)c1ccncc1 (stereo partly drawn) [Example 205, (3R)-3-(2-(2-chloro-5-fluoro-3,4-dihydroxyphenyl)-2-(4-(3-(isonicotinamido)propyl)-2,3-dioxopiperazine-1-carboxamido)acetamido)-7-fluoro-2-hydroxy-3,4-dihydro-2H-benzo[e][1,2]oxaborinine-8-carboxylic acid] | < 10 µM | < 1 mg/L | < 1 mg/L | 4 to 8 mg/L (≈ 5.37 to 10.7 µM) | 16 to 32 mg/L (≈ 21.5 to 43 µM) | < 1 mg/L | < 1 mg/L | < 1 mg/L | > 64 mg/L | 2 to 4 mg/L (≈ 2.69 to 5.37 µM) | < 1 mg/L | < 10 µM | < 1 mg/L | < 1 mg/L | 16 to 32 mg/L (≈ 21.5 to 43 µM) |
| O=C(NCCCN1CCN(C(=O)NC(C(=O)N[C@H]2Cc3ccc(F)c(C(=O)O)c3OB2O)c2cc(F)c(O)c(O)c2Cl)C(=O)C1=O)c1nccs1 (stereo partly drawn) [Example 211, (3R)-3-(2-(2-chloro-5-fluoro-3,4-dihydroxyphenyl)-2-(2,3-dioxo-4-(3-(thiazole-2-carboxamido)propyl)piperazine-1-carboxamido)acetamido)-7-fluoro-2-hydroxy-3,4-dihydro-2H-benzo[e][1,2]oxaborinine-8-carboxylic acid] | – | < 1 mg/L | 2 to 4 mg/L (≈ 2.66 to 5.33 µM) | 16 to 32 mg/L (≈ 21.3 to 42.6 µM) | 16 to 32 mg/L (≈ 21.3 to 42.6 µM) | 2 to 4 mg/L (≈ 2.66 to 5.33 µM) | 2 to 4 mg/L (≈ 2.66 to 5.33 µM) | 2 to 4 mg/L (≈ 2.66 to 5.33 µM) | > 64 mg/L | 2 to 4 mg/L (≈ 2.66 to 5.33 µM) | < 1 mg/L | < 10 µM | < 1 mg/L | < 1 mg/L | 16 to 32 mg/L (≈ 21.3 to 42.6 µM) |
| O=C(O)c1c(F)ccc2c1OB(O)[C@@H](NC(=O)C(NC(=O)N1CCN(CCCNC(=O)[C@@H]3CCCN3)C(=O)C1=O)c1cc(F)c(O)c(O)c1Cl)C2 (stereo partly drawn) [Example 212, (3R)-3-(2-(2-chloro-5-fluoro-3,4-dihydroxyphenyl)-2-(2,3-dioxo-4-(3-((S)-pyrrolidine-2-carboxamido)propyl)piperazine-1-carboxamido)acetamido)-7-fluoro-2-hydroxy-3,4-dihydro-2H-benzo[e][1,2]oxaborinine-8-carboxylic acid] | – | 32 to 64 mg/L (≈ 43.4 to 86.9 µM) | 2 to 4 mg/L (≈ 2.71 to 5.43 µM) | 16 to 32 mg/L (≈ 21.7 to 43.4 µM) | 16 to 32 mg/L (≈ 21.7 to 43.4 µM) | 8 to 16 mg/L (≈ 10.9 to 21.7 µM) | 2 to 4 mg/L (≈ 2.71 to 5.43 µM) | 2 to 4 mg/L (≈ 2.71 to 5.43 µM) | > 64 mg/L | 8 to 16 mg/L (≈ 10.9 to 21.7 µM) | < 1 mg/L | 10 to 50 µM | < 1 mg/L | < 1 mg/L | 16 to 32 mg/L (≈ 21.7 to 43.4 µM) |
| O=C(NCCCN1CCN(C(=O)NC(C(=O)N[C@H]2Cc3ccc(F)c(C(=O)O)c3OB2O)c2cc(F)c(O)c(O)c2Cl)C(=O)C1=O)Nc1cccnc1 (stereo partly drawn) [Example 213, (3R)-3-(2-(2-chloro-5-fluoro-3,4-dihydroxyphenyl)-2-(2,3-dioxo-4-(3-(3-(pyridin-3-yl)ureido)propyl)piperazine-1-carboxamido)acetamido)-7-fluoro-2-hydroxy-3,4-dihydro-2H-benzo[e][1,2]oxaborinine-8-carboxylic acid] | – | 8 to 16 mg/L (≈ 10.5 to 21.1 µM) | < 1 mg/L | 16 to 32 mg/L (≈ 21.1 to 42.1 µM) | 16 to 32 mg/L (≈ 21.1 to 42.1 µM) | 2 to 4 mg/L (≈ 2.63 to 5.26 µM) | 2 to 4 mg/L (≈ 2.63 to 5.26 µM) | 2 to 4 mg/L (≈ 2.63 to 5.26 µM) | > 64 mg/L | 8 to 16 mg/L (≈ 10.5 to 21.1 µM) | < 1 mg/L | < 10 µM | 2 to 4 mg/L (≈ 2.63 to 5.26 µM) | < 1 mg/L | > 64 mg/L |
